Assay results from patent US4444753A, “Pharmaceutical composition comprising extract from poison pouch contents of bee” (priority 1979, dated 1984).

Experiments:
[1] = system: Ehrlich's ascites cancerous cells; assay: Enhancement of carcinostatic activity of Carboquan or Adriamycin to Ehrlich's ascites cancer cells (Table 10); format: in vivo, mouse (ICR-strain); conditions: 1×10^5 cells, B-TL 1/10 none or 0.25 ml × 7 s.c.
Description: (2) Ehrlich's ascites cancerous cells were inoculated intraperitoneally into ICR-strain mice male, 6 weeks old) in an amount of 1×10^5 cells per mouse. B-TL 1/10 was administered subcutaneously at the back at a dose of 0.25 ml per mouse once a day repeatedly from the day of inoculation for 7 days in total. On the day following the inoculation of the cancerous cells, 0.25 mg/kg of Carboquan (CQ) or 5 mg/kg of Adriamycin (AM) was administered intraperitoneally.

[2] = system: B-16 melanoma cancerous cells; assay: Enhancement of carcinostatic activity of Adriamycin to B-16 melanoma cancerous cells (Table 12); format: in vivo, mouse (BDF1-strain); conditions: 0.2 g cells i.p.; AM 2 mg/kg i.p., B-TL 1/10 none or 0.25 ml × 7 s.c.
Description: Fifteen grams of B-16 melanoma cell cluster was milled by means of a mesh, and then suspended in 15 ml of a physiological salt solution, after which the resulting suspension was transplanted intraperitoneally in BDF1 -strain mice (male, 6 weeks old) in an amount of 0.2 ml per mouse (i.e., 0.2 g of the cells were transplanted per mouse). B-TL 1/10 was administered subcutaneously at the back at a dose of 0.25 ml per mouse once a day for 7 days from the day of transplantation. Adriamycin (AM) was administered intraperitoneally once at a dose of 2 mg/kg on the day following the day of cancer transplantation.

L-1210 leukemia cells [3] = assay: Enhancement of carcinostatic activity of Arabinofuranocylcytocine to L-1210 leukemia cells (Table 6); format: in vivo, mouse (BDF1-strain); conditions: 1×10^3 cells; Ara-C 30 mg/kg × 5 i.p., B-TL 1/10 none or 0.25 ml × 7 s.c.
Description: (3) L-1210 leukemia cells were inoculated intraperitoneally into BDF1 -strain mice (male, 6 to 7 weeks old) in an amount of 1×10^3 cells per mouse, and B-TL 1/10 was administered subcutaneously at the back at a dose of 0.25 ml per mouse once a day repeatedly from the day of inoculation for 7 days in total. Arabinofuranocylcytocine (Ara-C) was administered intraperitoneally at a dose of 30 mg/kg once a day from the day following the inoculation of the cancerous cells for 5 days in total.

P-388 leukemia cells = assay: Enhancement of carcinostatic activity of Mitomycin C to P-388 leukemia cells (Table 8); format: in vivo, mouse (BDF1-strain); conditions: 1×10^3 cells; MMC 0.5 mg/kg i.p., B-TL 1/10 none or 0.25 ml × 7 s.c.
Description: P-388 leukemia cells were inoculated intraperitoneally into BDF1 -strain mice (male, 7 weeks old) in an amount of 1×10^3 cells per mouse, and B-TL 1/10 was administered subcutaneously at the back at a dose of 0.25 ml per mouse on the day of inoculation and thereafter administered subcutaneously at the back at the same dose once a day repeatedly for 7 days. Mitomycin C (MMC) was administered intraperitoneally at a dose of 0.5 mg/kg on the first day after the inoculation of the P-388 leukemia cells.

[4] = system: Ehrlich's ascites cancerous cells; assay: Enhancement of carcinostatic activity of Mitomycin C to Ehrlich's ascites cancer cells, B-TL 1/10 pretreatment (Table 11); format: in vivo, mouse (ICR-strain); conditions: 1×10^5 cells, B-TL 1/10 none or 0.25 ml × 8 s.c.
Description: (3) B-TL 1/10 was administered subcutaneously at the back of ICR-strain mice (male, 5 weeks old) at a dose of 0.25 ml per mouse once a day repeatedly for 8 days in total, and on the day following the eighth administration, 1×10^5 Ehrlich's ascites cancerous cells were inoculated intraperitoneally. On the day following the inoculation of the cancerous cells, Mitomycin C (MMC) was administered intraperitoneally at a dose of 0.5 mg/kg or 1 mg/kg.

L-1210 leukemia cells [5] = assay: Enhancement of carcinostatic activity of Mitomycin C to subcutaneous L-1210 tuberous tumor (Table 7); format: in vivo, mouse (BDF1-strain)
Description: (4) L-1210 leukemia cells were inoculated subcutaneously at the armpit of BDF1 -strain mice (male, 7 weeks old) in an amount of 1×10^6 cells per mouse to form a tuberous tumor. B-TL 1/10 was administered subcutaneously at the back at a dose of 0.25 ml per mouse once a day repeatedly from the first day after the inoculation of the cancerous cells for 7 days in total, and Mitomycin C was administered into the tumor at a dose of 4 mg/kg on the first day after the inoculation of the cancerous cells.

L-1210 leukemia cells [6] = assay: Enhancement of carcinostatic activity of Mitomycin C to L-1210 leukemia cells, divided B-TL 1/10 dosing (Table 5); format: in vivo, mouse (BDF1-strain); conditions: MMC 4 mg/kg
Description: (§1) (1) L-1210 leukemia cells were inoculated intraperitoneally into BDF1 -strain mice (male, 6 to 7 weeks old) in an amount of 1×10^3, 1×10^4 or 1×10^5 cells per mouse, B-TL 1/10 was administered subcutaneously at the back at a dose of 0.25 ml per mouse once a day repeatedly from the day of inoculation for 7 days in total. Mitomycin C (MMC) was administered intraperitoneally at a dose of 4 mg/kg on the first day after the inoculation of the cancerous cells.
(2) In the same manner as in (1), L-1210 leukemia cells were inoculated and MMC and the B-T were administered. B-TL 1/10 was administered subcutaneously at the back, […], and once on the third, 4th, 5th and 6th days after the inoculation.

[7] = system: Ehrlich's ascites cancer cells; assay: Enhancement of carcinostatic activity of Mitomycin C to Ehrlich's ascites cancer cells (Table 9); format: in vivo, mouse (ICR-strain); conditions: 1×10^5 cells; MMC 0.5 mg/kg i.p.
Description: (1) Ehrlich's ascites cancer cells were inoculated intraperitoneally into ICR-strain mice (female, 6 weeks old) in an amount of 1×10^5 cells per mouse, and B-TL 1/10 was administered subcutaneously at the back at a dose of 0.25 ml per mouse once a day repeatedly from the third day after the inoculation of the cancerous cells for 7 days in total. Mitomycin C (MMC) was administered intraperitoneally at a dose of 0.5 mg/kg on the first day after the inoculation of the cancerous cells.

L-1210 leukemia cells [8] = assay: Enhancement of carcinostatic activity of Mitomycin C to L-1210 leukemia cells (Table 4); format: in vivo, mouse (BDF1-strain); conditions: for Number of survivors/Number of tested mice (on the 38th day) / T/C (%): MMC 4 mg/kg i.p., B-TL 1/10 none or 0.25 ml × 7 s.c.
Description: as §1

Escherichia coli TK-16 [9] = assay: Antibacterial activity-enhancing effect with Piperacillin in Escherichia coli infection (Table 17); format: in vivo, Escherichia coli; ICR-strain mice; conditions: for Number of survivors: 2×10^7 cells/mouse, 5 mice, 7th day
Description: Escherichia coli TK-16 was administered intraperitoneally into a group of five ICR-strain mice (male, 4 weeks old) in an amount of 2×10^7 cells/mouse, and after one hour, Piperacillin was administered once subcutaneously at the back. B-TL 1/5 was administered subcutaneously at the back at a dose of 0.25 ml per mouse once a day on the 7th, 6th and 5th days before the inoculation of the bacteria, and B-TL 1/10 at a dose of 0.25 ml per mouse once a day on the second and first days before the inoculation of the bacteria. A physiological salt solution was administered to the control group in the same manner as above, and the numbers of the survivors on the 7th day after the inoculation of the bacteria were observed.

Escherichia coli TK-16 [10] = assay: Infection-controlling effect at a low immunity (cyclophosphamide-treated mice, Table 16); format: in vivo, Escherichia coli; ICR-strain mice; conditions: for Number of survivors: 15 mice, cyclophosphamide 100 mg/kg, 7th day
Description: Cyclophosphamide was administered intraperitoneally into a group of fifteen ICR-strain mice (male, 4 weeks old) at a dose of 100 mg/kg. On the next day, B-TL 1/10 was administered subcutaneously at the back at a dose of 0.25 ml per mouse once a day repeatedly for 4 days, and a physiological salt solution was administered to the contorl group in the same manner as described above. On the day following the administration of B-TL 1/10, Escherichia coli TK-16 was administered intraperitoneally, and the numbers of the survivors on the 7th day after the inoculation of the bacteria were observed.

[11] = 1×10^6 cells s.c., MMC 4 mg/kg into the tumor, B-TL 1/10 none or 0.25 ml × 7 s.c.

## COC(COC(N)=O)C1=C(N2CC2)C(=O)C(C)=C(N2CC2)C1=O (racemic) [CQ, Carboquan]
[1]; CQ 0.25 mg/kg i.p.
  Number of survivors/Number of tested mice (on the 40th day): 0/4
  T/C (%): 138%

## COc1cccc2c1C(=O)c1c(O)c3c(c(O)c1C2=O)C[C@@](O)(C(=O)CO)C[C@@H]3O[C@H]1C[C@H](N)[C@H](O)[C@H](C)O1 [AM, Adriamycin]
[1]; AM 5 mg/kg i.p.
  Number of survivors/Number of tested mice (on the 40th day): 2/4
  T/C (%): 175%
[2]
  Number of survivors/Number of tested mice (on the 35th day): 1/4
  T/C (%): 182%

## Nc1ccn([C@@H]2O[C@H](CO)[C@@H](O)[C@@H]2O)c(=O)n1 [Ara-C, Arabinofuranocylcytocine]
L-1210 leukemia cells [3]
  Number of survivors/Number of tested mice (on the 30th day): 0/4
  T/C (%): 152%

## CO[C@@]12[C@H](COC(N)=O)C3=C(C(=O)C(C)=C(N)C3=O)N1C[C@@H]1N[C@@H]12 [MMC, Mitomycin C]
P-388 leukemia cells
  Number of survivors/Number of tested mice (on the 41st day): 0/3
  T/C (%): 101%
[4]; MMC 0.5 mg/kg i.p.
  Number of survivors/Number of tested mice (on the 40th day): 1/5
  T/C (%): 157%
[4]; MMC 1 mg/kg i.p.
  Number of survivors/Number of tested mice (on the 40th day): 0/5
  T/C (%): 172%
L-1210 leukemia cells [5]; [11]
  Number of survivors/Number of tested mice (on the 30th day): 4/5
  T/C (%): 304%
L-1210 leukemia cells [5]; 30th day versus control measured on 8-10th day (control = 100)
  Weight of tumor, Ratio to Control: 156
L-1210 leukemia cells [5]; on the 30th day, 4 survivors among 5, MMC 4 mg/kg, B-TL 1/10 none or 0.25 ml × 7
  Weight of tumor: 808 ± 461 mg
L-1210 leukemia cells [6]; 1 × 10^3 cells/mouse
  Number of survivors/Number of tested mice (on the 40th day): 1/4
  T/C (%): 187%
L-1210 leukemia cells [6]; 1 × 10^4 cells/mouse
  Number of survivors/Number of tested mice (on the 40th day): 1/4
  T/C (%): 202%
L-1210 leukemia cells [6]; 1 × 10^5 cells/mouse
  Number of survivors/Number of tested mice (on the 40th day): 0/4
  T/C (%): 136%
[7]
  Number of survivors/Number of tested mice (on the 40th day): 1/10
  T/C (%): 158%
L-1210 leukemia cells [8]; 1 × 10^3 cells/mouse
  Number of survivors/Number of tested mice (on the 38th day): 4/13
  T/C (%): 192%
L-1210 leukemia cells [8]; 1×10^3 cells, same tendency at 1×10^4 and 1×10^5
  life-prolonging effect (in words): a life-prolonging effect was observed
L-1210 leukemia cells [8]; 1 × 10^4 cells/mouse
  Number of survivors/Number of tested mice (on the 38th day): 2/9
  T/C (%): 188%
L-1210 leukemia cells [8]; 1 × 10^5 cells/mouse
  Number of survivors/Number of tested mice (on the 38th day): 0/4
  T/C (%): 136%

## CCN1CCN(C(=O)N[C@@H](C(=O)N[C@@H]2C(=O)N3[C@@H]2SC(C)(C)[C@@H]3C(=O)O)c2ccccc2)C(=O)C1=O [Piperacillin]
Escherichia coli TK-16 [9]; Piperacillin 0.156 mg/mouse s.c.
  Number of survivors: 0
Escherichia coli TK-16 [9]; Piperacillin 0.313 mg/mouse s.c.
  Number of survivors: 0
Escherichia coli TK-16 [9]; Piperacillin 0.625 mg/mouse s.c.
  Number of survivors: 1
Escherichia coli TK-16 [9]; Piperacillin 1.25 mg/mouse s.c.
  Number of survivors: 0
Escherichia coli TK-16 [9]; Piperacillin 2.5 mg/mouse s.c.
  Number of survivors: 2
Escherichia coli TK-16 [9]; Piperacillin dose, without or with B-TL 1/5 then B-TL 1/10 pretreatment
  ED50: 3.54 mg/mouse

## O=P1(N(CCCl)CCCl)NCCCO1 (centres unmarked) [cyclophosphamide, Cyclophosphamide]
Escherichia coli TK-16 [10]; 1.0 × 10^6 cells/mouse
  Number of survivors: 3
Escherichia coli TK-16 [10]; 2.0 × 10^5 cells/mouse
  Number of survivors: 10
Escherichia coli TK-16 [10]; 3.0 × 10^5 cells/mouse
  Number of survivors: 10
Escherichia coli TK-16 [10]; 4.0 × 10^5 cells/mouse
  Number of survivors: 6
Escherichia coli TK-16 [10]; 8.0 × 10^5 cells/mouse
  Number of survivors: 4
Escherichia coli TK-16 [10]; Table 16
  LD50 versus control (in words): significantly lower
Escherichia coli TK-16 [10]; cyclophosphamide 100 mg/kg i.p., without or with B-TL 1/10 0.25 ml s.c. × 4 days
  LD50 (of bacteria): 2.7 × 10^5 cells/mouse
Escherichia coli TK-16 [10]; mice given cyclophosphamide
  infection-controlling effect (in words): the inhibition of the infection-controlling effect was confirmed
